Source: patent US6583175B2, “Alkylxanthates and use of alkylxanthates in the integrated pest management” (Council of Scientific & Industrial Research, priority 2001, dated 2003)
Values after ≈ are worked out from the molar mass of the structure shown.

Legend:
Spodoptera litura = test: Antifeedant activity against late third instar of Spodoptera litura (leaf disk, oral feeding); format: in vivo; settings: in vivo
[1] = test system: Brine shrimp, Artemia salina; settings: in vivo
lice = settings: in vivo; cited from earlier work

## C/C=C(\C)C(=O)O[C@H]1C[C@@H](OC(C)=O)[C@@]2(C(=O)OC)CO[C@H]3[C@@H](O)[C@@](C)([C@]45O[C@@]4(C)[C@H]4C[C@@H]5O[C@@H]5OC=C[C@@]54O)[C@H]4[C@]1(CO[C@]4(O)C(=O)OC)[C@@H]32 [Azadiractin, reference compound]
Spodoptera litura
  Concentration required for 50% leaf protection EC50 ± S.E.: 6.34 ± 1.77 μg/cm^2

## CC[C@@]1(O)C(=O)OCc2c1cc1n(c2=O)Cc2cc3ccccc3nc2-1 [Chamtothecin, reference compound]
[1]
  LC50 ± S.E.: 2.53 ± 0.43 µg/mL (≈ 7.26 µM)

## S=C(OCc1ccccc1)SCCSC(=S)OCc1ccccc1 [Compound 5, Ethylene Bis(benzylxanthate)]
lice
  insecticidal activity against lice: moderate insecticidal activity
